Results published in the NIST ThermoML archive (doi:10.1016/j.tca.2012.04.030).

Key:
[1] = an = ratio of the nth substance listed; conditions: for surface tension liquid-gas: Ring tensiometer; for viscosity / mass density: 101 kPa, Liquid; for viscosity: Concentric cylinders viscometry; for mass density: Vibrating tube method
[2] = refractive index (Na D-line) (dimensionless); an = ratio of the nth substance listed; conditions: 101 kPa, Liquid, Standard Abbe refractometry

O=C(CO)[C@@H](O)[C@H](O)[C@H](O)CO [D-fructose] + C[N+](C)(C)CCO.[Cl-]
Conditions	mass density, [1] [kg/m3]	refractive index, [2]	surface tension liquid-gas, [1] [mN/m]	viscosity, [1] [mPa·s]
298.15 K, a2 = 1	1337	1.523	70.4	14347
298.15 K, a2 = 1.5	1303.6	1.521	73.6	12772
298.15 K, a2 = 2	1277.9	1.519	74	11733
298.15 K, a2 = 2.5	1259	1.522	75	17646
308.15 K, a2 = 1	1331.6	1.521	68	7722.9
308.15 K, a2 = 1.5	1298.2	1.519	71.7	7126.1
308.15 K, a2 = 2	1272.5	1.518	72	6137.1
308.15 K, a2 = 2.5	1253.7	1.52	73	8556.6
318.15 K, a2 = 1	1326.2	1.52	66	4050.5
318.15 K, a2 = 1.5	1292.7	1.517	69.5	3071
318.15 K, a2 = 2	1266.9	1.515	70	2457
318.15 K, a2 = 2.5	1248.5	1.517	71	4461.7
328.15 K, a2 = 1	1320.7	1.518	64.4	1415.9
328.15 K, a2 = 1.5	1287.3	1.515	67.3	1271.1
328.15 K, a2 = 2	1261.2	1.514	68	1261.7
328.15 K, a2 = 2.5	1243.3	1.516	69	1267.5
338.15 K, a2 = 1	1315.2	1.515	62.6	806.5
338.15 K, a2 = 1.5	1281.8	1.512	65.6	698.4
338.15 K, a2 = 2	1255.5	1.511	66	570.7
338.15 K, a2 = 2.5	1237.9	1.514	67	615.4
348.15 K, a2 = 1	1309.3	1.513	61	459.7
348.15 K, a2 = 1.5	1275.9	1.511	63	353.1
348.15 K, a2 = 2	1249.7	1.509	64	285.3
348.15 K, a2 = 2.5	1232.4	1.512	65	325.5
358.15 K, a2 = 1	1303.1	1.512	59	280.6
358.15 K, a2 = 1.5	1269.7	1.509	61.3	236.1
358.15 K, a2 = 2	1241.9	1.507	62	129.3
358.15 K, a2 = 2.5	1226.9	1.51	63	182.6
